Measured values: patent publication US7655632B2, “Pyrazole derivative, medicinal composition containing the same, medicinal use thereof, and intermediate for production thereof” (Kissei Pharmaceutical Co., Ltd., priority 2002, dated 2010)

How the values were obtained:
human SGLT1 = target: T1, human SGLT1 (Homo sapiens, UniProt P13866); assay: Assay for inhibitory effects on human SGLT1 activity (uptake of methyl-α-D-glucopyranoside in CS1-5-11D cells); assay type: cell-based; conditions: CHO-K1 cells stably expressing human SGLT1 (CS1-5-11D); 1 mM α-MG uptake, 37° C., 1 hour
T1 construct: expressed in transfected cells
T1 sequence (P13866 1-664): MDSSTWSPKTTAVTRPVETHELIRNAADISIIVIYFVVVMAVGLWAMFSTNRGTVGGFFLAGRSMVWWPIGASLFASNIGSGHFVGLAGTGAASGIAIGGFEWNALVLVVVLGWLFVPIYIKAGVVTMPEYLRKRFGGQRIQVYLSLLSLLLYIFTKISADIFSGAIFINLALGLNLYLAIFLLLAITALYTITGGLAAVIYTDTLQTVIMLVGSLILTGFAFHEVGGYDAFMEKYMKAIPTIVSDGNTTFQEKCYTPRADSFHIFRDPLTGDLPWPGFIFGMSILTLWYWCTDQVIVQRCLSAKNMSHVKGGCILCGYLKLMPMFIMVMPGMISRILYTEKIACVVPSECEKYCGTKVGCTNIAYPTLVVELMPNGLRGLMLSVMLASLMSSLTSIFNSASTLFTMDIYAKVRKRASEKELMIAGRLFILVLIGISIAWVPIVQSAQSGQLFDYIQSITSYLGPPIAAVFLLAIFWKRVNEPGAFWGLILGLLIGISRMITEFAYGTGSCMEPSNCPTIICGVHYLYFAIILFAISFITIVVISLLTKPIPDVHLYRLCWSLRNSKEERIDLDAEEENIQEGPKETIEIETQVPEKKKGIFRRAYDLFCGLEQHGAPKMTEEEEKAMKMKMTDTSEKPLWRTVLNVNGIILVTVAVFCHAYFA
Experimental: Assay for Inhibitory Effects on Human SGLT1 Activity
1) Cloning and Construction of the Vector Expressing Human SGLT1
The cDNA library was prepared for PCR amplification by reverse transcription from total RNA deprived from human small intestine (Ori gene) using oligo-dT as a primer. Using this cDNA library as a template, the DNA fragment coding 1 to 2005 bp of human SGLT1 (ACCESSION: M24847), which was reported by Hediger et al., was amplified by PCR method and inserted into the multi-cloning site of pcDNA3.1(−) (Invitrogen). The DNA sequence inserted was perfectly matched to the previously reported sequence.
2) Establishment of Cell Line Stably Expressing Human SGLT1
The expression vector of human SGLT1 was digested by Sca I into a linear DNA. The linear DNA was transfected into CHO-K1 cells by means of lipofection (Effectene Transfection Reagent: QIAGEN). Neomycin resistant cell lines were selected by culture in the medium containing G418 (1 mg/mL, LIFE TECHNOLOGIES), and then the activity against the uptake of methyl-α-D-gluco-pyranoside was measured by the method described below. […] CS1-5-11D cells were cultured in the presence of G418 at 200 μg/mL.
3) Measurement of the Inhibitory Activity Against the Uptake of methyl-α-D-glucopyranoside (α-MG)
CS1-5-11D cells were seeded into a 96-well culture plate at a density of 3×10^4 cells/well and cultured for 2 days, and were used in the uptake assay. A mixture of non-labeled (Sigma) and ^14C-labeled α-MG (Amersham Pharmcia Biotec) was added to the uptake buffer (pH 7.4; containing 140 mM sodium chloride, 2 mM potassium chloride, 1 mM calcium chloride, 1 mM magnesium chloride, 10 mM 2-[4-(2-hydroxyethyl)-1-piperazinyl]ethane sulfonic acid, and 5 mM tris(hydroxymethyl)aminomethane) at the final concentration of 1 mM. A test compound was dissolved in dimethyl sulfoxide, and then appropriately diluted with distilled water. The test compound solution was added to the uptake buffer containing 1 mM α-MG, and designated as a measurement buffer. For the control group, the measurement buffer without any test compound was prepared. For measuring the basal uptake, a basal uptake measurement buffer which contains 140 mM chorine chloride instead of sodium chloride was prepared. After removing the culture medium of CS1-5-11D cells, 180 μL of the pre-treatment buffer (the basal uptake buffer without α-MG) was added to each well and incubated at 37° C. for 10 minutes. After repeating the same treatment, the pre-treatment buffer was removed. To each well was added 75 μL of the measurement buffer or the basal uptake buffer was added and incubated at 37° C. for 1 hour. After removing the measurement buffer, cells were washed twice with 180 μL per well of the washing buffer (the basal uptake buffer containing 10 mM non-labeled α-MG). The cells were solubilized by 75 μL per well of 0.2 mol/L sodium hydroxide. The cell lysates were transferred into PicoPlates (Packard), and then added 150 μL of MicroScint-40 (Packard) and mixed. Radioactivity was measured by means of micro-scintillation counter TopCount (Packard). One hundred % was set to the difference between the uptake in the control group and the basal uptake, and the uptake of methyl α-D-gluco-pyranoside at each drug concentration were calculated.

diabetic rats = assay: Assay for inhibitory effects on blood glucose level increase in rats (liquid meal tolerance test in diabetic rat model); assay type: in vivo; conditions: test compound 1 mg/kg orally, liquid meal 17.25 kcal/kg, mean ± S.E.
Experimental: Assay for Inhibitory Effects on Blood Glucose Level Increase in rats
1) Preparation of Diabetic Rat Model
Male wistar rats (Japan Charles River), aged 8 weeks old, were injected nicotinamide (230 mg/kg) intraperitoneally. Fifteen minutes after injection, they were injected streptozotocin (85 mg/kg) intravenously from tail vain under anesthesia with ether. After a week, rats were fasted overnight and then glucose tolerance test (2 g/kg) was done.
2) Liquid Meal Tolerance Test
After overnight fasted, the diabetic rats were orally administered a test compound (1 mg/kg), which was dissolved in distilled water, in the drug-treating group, or distilled water alone in a control group. Immediately after the compound administration, 17.25 kcal/kg of liquid meal (No. 038, Control diet, assorted with dextrin and maltose; Oriental Yeast Co., Ltd.) was loaded orally. The blood was collected from tail artery immediately before and after administration with the time course, and treated with heparin immediately. The blood was centrifuged, and the plasma was collected to quantify the plasma glucose concentration by glucose oxidase method. The values in the table are presented as the mean ±S.E.

IC50 (human SGLT1): 0.018 µM
Compound: CC(C)c1[nH]nc(O[C@@H]2O[C@H](CO)[C@H](O)[C@H](O)[C@H]2O)c1Cc1ccc(CCCC(=O)NC(C)(C)C(=O)N2CCN(C)CC2)cc1 [Example 61, 3-(β-D-Galactopyranosyloxy)-5-isopropyl-4-{[4-(3-{1-[(4-methylpiperazin-1-yl)carbonyl]-1-(methyl)ethylcarbamoyl}-propyl)phenyl]methyl}-1H-pyrazole]
Plasma glucose concentration 0.5 h (diabetic rats; 0.5 hour after drug administration): 136 ± 6 mg/dL
Plasma glucose concentration 1 h (diabetic rats; 1 hour after drug administration): 172 ± 37 mg/dL
Plasma glucose concentration 0 h (diabetic rats; pretreatment (0 h)): 116 ± 6 mg/dL
